Experimental data reported in PMC8058344, “ARIH1 signaling promotes anti-tumor immunity by targeting PD-L1 for proteasomal degradation” (Nature Communications, 2021).

Key:
T790M/L858R EGFR = T790M/L858R EGFR (Homo sapiens, UniProt P00533, L858R/T790M); experiment: In vitro kinase specificity profiling; format: biochemical
PD-L1 in U937 cells = experiment: PD-L1 levels in U937 cells by western blotting and flow cytometry; format: cell-based, human; settings: western blotting and flow cytometry, 10 μM, 12 h
Description: Fig. 1 EGFR inhibitors were screened to reduce membrane PD-L1 levels. a High-throughput screening of 2125 FDA-approved drugs or drug candidates. U937 cells were incubated with IFNγ (100 ng/mL) for 48 h, treated with the drugs at 10 μM for 12 h. Ruxolitinib (Rux) was used as a positive control. The hit compounds that induced the decrease of PD-L1 levels are shown in blue. The depth of blue represents decreased level of PD-L1. The heatmap represents the targeted pathways obtained from the high-throughput screening, based upon decreased membrane PD-L1 level detected by flow cytometry. b Immunoblotting of PD-L1 in U937 cells treated with ES-072 (ES) or AZD9291 (AZD) at indicated concentrations for 12 h. ES and AZD are EGFR inhibitors. c, d Median fluorescence intensity (MFI) (c) and relative quantification (d) of PD-L1 in U937 cells treated with 10 μM ES-072 or 10 μM AZD9291 for 12 h. Data represent means ± SEM, n = 18, 6 independent repeats, ****P < 0.0001. e–g Immunoblotting (e, f) and flow cytometry (g) analysis of PD-L1 levels in U937 cells treated with 10 μM ES-072 or 10 μM AZD9291 for the indicated times. h, i Immunoblottings (h) of PD-L1 and β-TrCP, relative quantification (i) of PD-L1 MFI in H1975 cells transfected with non-targeting siRNA (si-CTRL) or β-TrCP siRNAs (si-β-TrCP) and treated with or without 10 μM ES-072/AZD9291 for 12 h. Data represent means ± SEM, n = 9, 3 independent repeats, NS: no significant; ****P < 0.0001. j–l Immunoblotting (j) and flow cytometry analysis (k) with relative quantification (l) of PD-L1 in H1975 cells treated with 10 μM ES-072 or AZD9291, and/or 5 μM LY2090314 (LY) for 12 h. LY is a GSK3 inhibitor. […]
For western blot analysis, cells were collected and washed with PBS, then lysed in radioimmunoprecipitation assay (RIPA) buffer (1% Triton X-100, 100 mM Tris-HCl pH 8.8, 100 mM NaCl, 0.5 mM EDTA). […] The supernatant was collected and the protein concentration was measured by bicinchoninic acid reaction. […] Signals were detected using chemiluminescence reagents (#4AW001-500, 4A649 Biotech, Co.). […]

T790M/L858R EGFR, sequence (P00533 25-1210 T790M/L858R): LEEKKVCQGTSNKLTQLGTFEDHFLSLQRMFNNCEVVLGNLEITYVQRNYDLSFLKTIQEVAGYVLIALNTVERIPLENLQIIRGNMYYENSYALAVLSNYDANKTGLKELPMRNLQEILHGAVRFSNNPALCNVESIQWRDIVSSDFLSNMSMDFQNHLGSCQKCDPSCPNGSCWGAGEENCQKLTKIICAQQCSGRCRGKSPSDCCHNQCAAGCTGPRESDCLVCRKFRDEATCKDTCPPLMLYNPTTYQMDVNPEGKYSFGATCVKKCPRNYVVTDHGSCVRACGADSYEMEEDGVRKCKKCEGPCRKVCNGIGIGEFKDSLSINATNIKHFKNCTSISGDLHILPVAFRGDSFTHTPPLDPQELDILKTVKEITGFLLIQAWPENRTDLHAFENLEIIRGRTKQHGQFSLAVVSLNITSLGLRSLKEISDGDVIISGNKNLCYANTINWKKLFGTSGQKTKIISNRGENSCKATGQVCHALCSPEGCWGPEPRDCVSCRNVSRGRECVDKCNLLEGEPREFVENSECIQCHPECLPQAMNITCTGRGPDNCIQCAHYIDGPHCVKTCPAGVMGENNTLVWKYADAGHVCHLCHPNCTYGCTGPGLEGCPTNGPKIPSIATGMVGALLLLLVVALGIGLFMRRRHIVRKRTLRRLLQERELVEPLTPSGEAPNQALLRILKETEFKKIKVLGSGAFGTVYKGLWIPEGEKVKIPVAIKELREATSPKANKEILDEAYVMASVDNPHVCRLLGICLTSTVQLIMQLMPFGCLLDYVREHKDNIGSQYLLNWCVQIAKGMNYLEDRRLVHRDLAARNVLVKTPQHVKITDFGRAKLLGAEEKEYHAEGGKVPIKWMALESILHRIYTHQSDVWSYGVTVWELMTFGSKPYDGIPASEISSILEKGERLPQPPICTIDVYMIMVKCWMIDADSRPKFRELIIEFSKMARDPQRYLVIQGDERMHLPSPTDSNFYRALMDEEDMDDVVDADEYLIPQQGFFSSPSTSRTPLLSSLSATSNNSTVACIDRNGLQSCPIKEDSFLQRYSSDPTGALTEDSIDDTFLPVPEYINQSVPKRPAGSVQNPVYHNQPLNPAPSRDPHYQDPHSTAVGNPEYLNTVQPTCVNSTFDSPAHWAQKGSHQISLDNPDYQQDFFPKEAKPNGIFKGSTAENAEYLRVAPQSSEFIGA

C=CC(=O)Nc1cccc(Nc2nc(Nc3ccc(N4CCN(C)CC4)nc3OC)ncc2C(F)(F)F)c1 [ES-072]
IC50 (T790M/L858R EGFR): 1.75 nM
IFNγ-induced membranal PD-L1 levels (PD-L1 in U937 cells): dramatically reduced
